Experimental findings from US6515122B1, “Tetracyclic benzimidazole derivatives and combinatorial libraries thereof” (Lion Bioscience AG, priority 1999, dated 2003) are described below.

In this assay the test system is Streptococcus pyogenes (ATCC# 97-03 14289). The assay is described as follows: Anti-microbial screen (growth inhibition, OD 570 nm). The following applies: ATCC97, compounds at 170 μg/ml, Todd Hewitt Broth, read at 4 hrs. The format is cell-based. How it is done:
Streptococcus pyogenes (ATCC# 97-03 14289) were grown in Todd Hewitt Broth (THB) (Difco Laboratories #0492-17-6) overnight until they reached an optical density of (OD=0.636@ 570 nm) by reading 0.1 ml in a 96 well microtiter plate in a Molecular Devices Thermomax. This preparation was kept frozen as stocks in 30% v/v glycerol in 1.5 ml aliquots at −70 C° until used. Prior to screening, 1.5 ml aliquots were thawed and diluted into 50 ml THB. 200 μl of this dilution was added to 92 wells of microtiter plate. To three wells THB (200 μl) was added to serve as a blank and a sterility control. Test compounds in DMSO and appropriate concentrations of DMSO were added to Growth/Solvent Controls at 0 time. Plates were read at 0 time at 570 nm in the Molecular Devices plate reader to obtain compounds correction factors for insoluble or colored compounds. Plates were read again at 4 hrs.
Compounds were assayed at a concentration of 170 μg/ml. Percent inhibition for each compound was calculated using the following formulae:
Color correct=(O.D. 0 hr−Blank 0 hr)−(Solvent Control 0 hr−Blank 0 hr)
% Inhibition=100−(O.D. test compound 4 hr−Blank 4 hr−color correct) divided by (O.D. growth/solvent control 4 hr−Blank 4 hr)
As for `CCN1CCCC1CNC(=O)c1ccc2c(c1)nc1n2CC(=O)Nc2ccc(NCCN3CCOCC3)cc2-1` (centres unmarked) [6000#00002], the inhibition (as a rule, the percentage by which the read-out fell short of the control) at 170 µg/mL came out at 96.3%.

The molecule `CCN1CCCC1CNC(=O)c1ccc2c(c1)nc1n2CC(=O)Nc2ccc(NCCN(C)C)cc2-1` (centres unmarked) [6000#00007] returned an inhibition at 170 µg/mL of 95.2%.

For `CCN1CCCC1CNC(=O)c1ccc2c(c1)nc1n2CC(=O)Nc2ccc(NCCCN3CCOCC3)cc2-1` (centres unmarked) [6000#00010], the inhibition at 170 µg/mL stood at 95.7%.

The molecule `CCN1CCCC1CNC(=O)c1ccc2c(c1)nc1n2CC(=O)Nc2ccc(N(C)CCN(C)C)cc2-1` (centres unmarked) [6000#00015] registered an inhibition at 170 µg/mL of 96.3%.

`O=C1Cn2c(nc3ccc(Cl)cc32)-c2cc(NC3CCCCCC3)ccc2N1` [6000#04048] registered an inhibition at 170 µg/mL of 95%.

The molecule `CC1CC(Nc2ccc3c(c2)-c2nc4ccc(Cl)cc4n2CC(=O)N3)CC(C)(C)C1` (centres unmarked) [6000#04080] returned an inhibition at 170 µg/mL of 95.3%.

The molecule `CC1CCCCN1CCCNc1ccc2c(c1)-c1nc3ccc(Cl)cc3n1C(C)C(=O)N2` (centres unmarked) [6000#08102] yielded an inhibition at 170 µg/mL of 95.1%.

Take `CN(CCc1ccccc1)c1ccc2c(c1)-c1nc3cc(C(=O)NC4CC(C)(C)NC(C)(C)C4)ccc3n1[C@@H](CCC(N)=O)C(=O)N2` [6000#17560]: the inhibition at 170 µg/mL is 98.6%.

The molecule `CC1(C)CC(NC(=O)c2ccc3c(c2)nc2n3[C@@H](CCC(N)=O)C(=O)Nc3ccc(NCc4cccc(C(F)(F)F)c4)cc3-2)CC(C)(C)N1` [6000#17584] gave an inhibition at 170 µg/mL of 97.2%.

`CN(C)CCN(C)c1ccc2c(c1)-c1nc3ccccc3n1[C@H](Cc1ccccc1)C(=O)N2` [6000#36335] gave an inhibition at 170 µg/mL of 100%.

In turn, `CN(C)CCN(C)c1ccc2c(c1)-c1nc3ccc(Cl)cc3n1[C@H](Cc1ccccc1)C(=O)N2` [6000#36655] had an inhibition at 170 µg/mL of 96.8%.

Consider `CN(C)CCCNc1ccc2c(c1)-c1nc3ccc(Cl)cc3n1[C@H](Cc1ccccc1)C(=O)N2` [6000#36687], for which at 170 µg/mL the inhibition was 96.1%.

`CN(C)CCCN(C)c1ccc2c(c1)-c1nc3cc(C(=O)N4CCC(C(N)=O)CC4)ccc3n1[C@@H](CC1CCCCC1)C(=O)N2` [6000#38375]: 170 µg/mL produced 95.1% inhibition.

Consider `COCCN(CCOC)C(=O)c1ccc2c(c1)nc1n2[C@@H](CC2CCCCC2)C(=O)Nc2ccc(N(C)CCN(C)C)cc2-1` [6000#38735], for which at 170 µg/mL the inhibition was 96.7%.

As to `CSCCCNC(=O)c1ccc2c(c1)nc1n2[C@@H](CC2CCCCC2)C(=O)Nc2ccc(N(C)CCN(C)C)cc2-1` [6000#39135], the inhibition at 170 µg/mL worked out at 98.1%.

For `CN(C)CCCN(C)c1ccc2c(c1)-c1nc3cc(C(=O)NCCN4CCOCC4)ccc3n1[C@@H](CC1CCCCC1)C(=O)N2` [6000#39255], the inhibition at 170 µg/mL turned out to be 95.2%.

Molecule `CCOC(=O)CCNC(=O)c1ccc2c(c1)nc1n2[C@@H](Cc2ccc(Cl)cc2)C(=O)Nc2ccc(N(C)CCN(C)C)cc2-1` [6000#45135] returned an inhibition at 170 µg/mL of 97.8%.

`CN(C)CCCN(C)c1ccc2c(c1)-c1nc3cc(C(=O)NCCCN4CCCC4=O)ccc3n1[C@@H](Cc1ccc(Cl)cc1)C(=O)N2` [6000#46455] registered an inhibition at 170 µg/mL of 96.8%.

With `COCCN(CCOC)C(=O)c1ccc2c(c1)nc1n2[C@@H](Cc2ccc(Cl)cc2)C(=O)Nc2ccc(N(C)CCN(C)C)cc2-1` [6000#46895], 170 µg/mL produced 96.1% inhibition.

`CC(=O)NCCNC(=O)c1ccc2c(c1)nc1n2[C@@H](Cc2ccc(Cl)cc2)C(=O)Nc2ccc(NCCCN3CCCCC3C)cc2-1` (some centres unmarked) [6000#47222]: the inhibition at 170 µg/mL came out at 95.7%.

As to `CSCCCNC(=O)c1ccc2c(c1)nc1n2[C@@H](Cc2ccc(Cl)cc2)C(=O)Nc2ccc(N(C)CCCN(C)C)cc2-1` [6000#47335], the inhibition at 170 µg/mL was 96.2%.

The molecule `CN(C)CCN(C)c1ccc2c(c1)-c1nc3cc(C(F)(F)F)ccc3n1[C@@H](Cc1c[nH]c3ccccc13)C(=O)N2` [6000#52815] displayed an inhibition at 170 µg/mL of 98.8%.

`CN(C)CCN(C)c1ccc2c(c1)-c1nc3cc(Br)ccc3n1[C@@H](CCCCNC(=O)C(F)(F)F)C(=O)N2` [6000#56655] returned an inhibition at 170 µg/mL of 97.8%.

`CN(C)CCCNc1ccc2c(c1)-c1nc3cc(Br)ccc3n1C(CCCCNC(=O)C(F)(F)F)C(=O)N2` (centres unmarked) [6000#56687] registered an inhibition at 170 µg/mL of 96.8%.

`CN(C)CCCN(C)c1ccc2c(c1)-c1nc3cc(Br)ccc3n1C(CCCCNC(=O)C(F)(F)F)C(=O)N2` (centres unmarked) [6000#56695] displayed an inhibition at 170 µg/mL of 95.8%.

On to `CCN(CC)CCN(C)c1ccc2c(c1)-c1nc3cc(C(F)(F)F)ccc3n1C(CCCCNC(=O)C(F)(F)F)C(=O)N2` (centres unmarked) [6000#56919], for which the inhibition at 170 µg/mL came to 95.8%.

For the molecule `CN(C)CCCNc1ccc2c(c1)-c1nc3cc(C(F)(F)F)ccc3n1C(CCCCNC(=O)C(F)(F)F)C(=O)N2` (centres unmarked) [6000#56927], 170 µg/mL produced 96.3% inhibition.

In turn, `CN(C)CCCN(C)c1ccc2c(c1)-c1nc3cc(C(F)(F)F)ccc3n1C(CCCCNC(=O)C(F)(F)F)C(=O)N2` (centres unmarked) [6000#56935] returned an inhibition at 170 µg/mL of 95.8%.

As to `CCN1CCCC1CNc1ccc2c(c1)-c1nc3cc(C(F)(F)F)ccc3n1C(CCCCNC(=O)C(F)(F)F)C(=O)N2` (centres unmarked) [6000#56957], testing at 170 µg/mL gave an inhibition of 97.4%.

The molecule `CCOC(=O)C1CCN(c2ccc3c(c2)-c2nc4ccc(Cl)cc4n2C(CCCCNC(=O)C(F)(F)F)C(=O)N3)CC1` (centres unmarked) [6000#57085] showed an inhibition at 170 µg/mL of 96.7%.

In the case of `CCOCCNc1ccc2c(c1)-c1nc3cc(C(=O)Nc4nccs4)ccc3n1C(CCCNC(=N)N)C(=O)N2` (centres unmarked) [6000#57258], the inhibition at 170 µg/mL is 96.9%.

The molecule `CCCCNc1ccc2c(c1)-c1nc3cc(C(=O)NCCCCCC(=O)OC)ccc3n1C(CCCNC(=N)N)C(=O)N2` (centres unmarked) [6000#57343] yielded an inhibition at 170 µg/mL of 100%.

In turn, `CCOC(=O)CCNC(=O)c1ccc2c(c1)nc1n2C(CCCNC(=N)N)C(=O)Nc2ccc(NC3CCN(Cc4ccccc4)C3)cc2-1` (centres unmarked) [6000#57389] registered an inhibition at 170 µg/mL of 97.3%.

`CCOC(=O)CCNC(=O)c1ccc2c(c1)nc1n2C(CCCNC(=N)N)C(=O)Nc2ccc(Sc3ccccn3)cc2-1` (centres unmarked) [6000#57425]: the inhibition at 170 µg/mL was found to be 97.8%.

The molecule `CCCCNc1ccc2c(c1)-c1nc3cc(C(=O)N4CCCC4)ccc3n1C(CCCNC(=N)N)C(=O)N2` (centres unmarked) [6000#57503] gave an inhibition at 170 µg/mL of 97.4%.

On to `CCN(CC)c1ccc2c(c1)-c1nc3cc(C(=O)N4CCCC4)ccc3n1C(CCCNC(=N)N)C(=O)N2` (centres unmarked) [6000#57519], for which the inhibition at 170 µg/mL turned out to be 100%.

In turn, `CCN(CC)c1ccc2c(c1)-c1nc3cc(C(=O)N(C)C4CCN(C)CC4)ccc3n1C(CCCNC(=N)N)C(=O)N2` (centres unmarked) [6000#57999] showed an inhibition at 170 µg/mL of 95.1%.

Consider `CCCCNc1ccc2c(c1)-c1nc3cc(C(=O)NCCO)ccc3n1C(CCCNC(=N)N)C(=O)N2` (centres unmarked) [6000#58223], for which the inhibition at 170 µg/mL was found to be 97%.

`CCOC(=O)C1CCCN(C(=O)c2ccc3c(c2)nc2n3C(CCCNC(=N)N)C(=O)Nc3ccc(N(C)CCc4ccccn4)cc3-2)C1` (centres unmarked) [6000#58414] yielded an inhibition at 170 µg/mL of 98%.

In turn, `CCOC(=O)C1CCCN(C(=O)c2ccc3c(c2)nc2n3C(CCCNC(=N)N)C(=O)Nc3ccc(N4CCCC(C(=O)OCC)C4)cc3-2)C1` (centres unmarked) [6000#58437] displayed an inhibition at 170 µg/mL of 100%.

In turn, `CCOC(=O)C1CCN(c2ccc3c(c2)-c2nc4cc(C(=O)N5CCCC(C(=O)OCC)C5)ccc4n2C(CCCNC(=N)N)C(=O)N3)CC1` (centres unmarked) [6000#58445] had an inhibition at 170 µg/mL of 97%.

`CCOC(=O)C1CCCN(C(=O)c2ccc3c(c2)nc2n3C(CCCNC(=N)N)C(=O)Nc3ccc(N4CCSCC4)cc3-2)C1` (centres unmarked) [6000#58475] showed an inhibition at 170 µg/mL of 99.1%.

Regarding `COCCN(CCOC)C(=O)c1ccc2c(c1)nc1n2C(CCCNC(=N)N)C(=O)Nc2ccc(N(C)Cc3ccccc3)cc2-1` (centres unmarked) [6000#59152], the inhibition at 170 µg/mL was 97.2%.

In the case of `CCOC(=O)C1CCCN(c2ccc3c(c2)-c2nc4cc(C(=O)N5CCC(NC(C)=O)C5)ccc4n2C(CCCNC(=N)N)C(=O)N3)C1` (centres unmarked) [6000#59317], the inhibition at 170 µg/mL is 96.6%.

Turning to `CCOC(=O)C1CCN(c2ccc3c(c2)-c2nc4cc(C(=O)N5CCC(NC(C)=O)C5)ccc4n2C(CCCNC(=N)N)C(=O)N3)CC1` (centres unmarked) [6000#59325], at 170 µg/mL the inhibition was 95.2%.

Regarding `CC(=O)NC1CCN(C(=O)c2ccc3c(c2)nc2n3C(CCCNC(=N)N)C(=O)Nc3ccc(N4CCSCC4)cc3-2)C1` (centres unmarked) [6000#59355], the inhibition at 170 µg/mL was found to be 97.2%.

On to `CCOC(=O)N1CCN(C(=O)c2ccc3c(c2)nc2n3C(CCCNC(=N)N)C(=O)Nc3ccc(NCCCSC)cc3-2)CC1` (centres unmarked) [6000#59387], for which 170 µg/mL produced 97.8% inhibition.

`CCOC(=O)N1CCN(C(=O)c2ccc3c(c2)nc2n3C(CCCNC(=N)N)C(=O)Nc3ccc(Sc4nc(C)cc(C)n4)cc3-2)CC1` (centres unmarked) [6000#59393] showed an inhibition at 170 µg/mL of 96.1%.

Consider `CCOC(=O)N1CCN(C(=O)c2ccc3c(c2)nc2n3C(CCCNC(=N)N)C(=O)Nc3ccc(Sc4ccccn4)cc3-2)CC1` (centres unmarked) [6000#59425], for which the inhibition at 170 µg/mL was 96.8%.

`CCOC(=O)N1CCN(C(=O)c2ccc3c(c2)nc2n3C(CCCNC(=N)N)C(=O)Nc3ccc(N4CCSCC4)cc3-2)CC1` (centres unmarked) [6000#59435] returned an inhibition at 170 µg/mL of 96.1%.

The molecule `CCOC(=O)N1CCN(C(=O)c2ccc3c(c2)nc2n3C(CCCNC(=N)N)C(=O)Nc3ccc(N(CC)CC)cc3-2)CC1` (centres unmarked) [6000#59439] registered an inhibition at 170 µg/mL of 96.4%.

The molecule `CC(=O)NCCNC(=O)c1ccc2c(c1)nc1n2C(CCCNC(=N)N)C(=O)Nc2ccc(NCc3ccc(F)cc3)cc2-1` (centres unmarked) [6000#59512] returned an inhibition at 170 µg/mL of 98.7%.

For the molecule `CN(C)CCN(C)c1ccc2c(c1)-c1nc3cc(Br)ccc3n1C(CCCNC(=N)N)C(=O)N2` (centres unmarked) [6000#60735], the inhibition at 170 µg/mL came out at 99.9%.
